Here are results for ten compounds from ChEMBL document CHEMBL1201862, “PubChem BioAssay data set” (2004).

SMILES strings stand for the structures.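 Growth conditions: 96-well plates. Treatment: test compound, 48 hours, 5 concentrations. Analysis: linear interpolation between bracketing concentrations; unreached endpoints set to highest concentration. At the GI50, growth is halved.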 Activity calls are given as the source filed them. Rule as the data show it: active = GI50 up to about 1.1 µM and inactive = higher. Where only a bound is given, the exact number is not on record here.

What all share (experiment): NCI anticancer screen, dose series, 48 h
For experiment [1], the system named is A498.
Experiment [2] concerns A549.
The test system of experiment [3] is CAKI-1.
Experiment [4] has as its system CCRF-CEM.
For experiment [5], the system named is DU-145.
Experiment [6] has as its system EKVX.
The test system of experiment [7] is HCC 2998.
The subject of experiment [8] is HL-60.
In experiment [9] the test system is HOP-62.
The test system of experiment [10] is HOP-92.
The subject of experiment [11] is M14.
The subject of experiment [12] is NCI-H522.
Experiment [13] concerns NCI/ADR-RES.
Experiment [14] concerns SK-MEL-5.
Experiment [15] deals with SNB-19.
Experiment [16] relates to SNB-75.
Experiment [17] relates to TK-10.
Experiment [18] has as its system U-251.
Experiment [19] has as its system UACC-62.
Experiment [20] relates to UO-31.

Regarding `O=[N+]([O-])c1ccccc1S(=O)(=O)c1ccccc1[N+](=O)[O-]`, the GI50 is > 87.7 µM (inactive) in experiment [1]; > 56.2 µM (inactive) in [2]; > 100 µM (inactive) in experiment [3]; > 100 µM (inactive) in experiment [4]; > 100 µM (inactive) in experiment [5]; > 56.2 µM (inactive) in experiment [6]. In addition, the GI50 in experiment [7] is > 100 µM (inactive); in experiment [8], > 100 µM (inactive); in experiment [9] it was 34.9 µM (inactive); in [10], 32.4 µM (inactive); in experiment [11], > 100 µM (inactive); in experiment [12] it was > 67.6 µM (inactive). In addition, the GI50 is > 100 µM (inactive) in experiment [13]; > 56.2 µM (inactive) in experiment [14]; 56.8 µM (inactive) in experiment [15]; 21 µM (inactive) in experiment [16]; 53.7 µM (inactive) in experiment [17]; 28.9 µM (inactive) in [18]. The GI50 in experiment [19] was > 100 µM (inactive); in experiment [20], > 82.2 µM (inactive).
Regarding `COC(=O)CCC12CCC(O1)c1ccccc12` (stereo not given), the GI50 in experiment [1], in experiment [2], in experiment [3], in experiment [4], in experiment [5] and in experiment [6] was > 100 µM (inactive) each time. For the same compound, the GI50 is > 100 µM (inactive) in experiment [7]; > 100 µM (inactive) in experiment [8]; > 100 µM (inactive) in experiment [9]; 92.5 µM (inactive) in experiment [10]; > 100 µM (inactive) in experiment [11]; > 100 µM (inactive) in [12]. For the same compound, the GI50 in experiment [13], in experiment [14], in experiment [15], in experiment [16], in experiment [17] and in experiment [18] was > 100 µM (inactive) throughout. In addition, the GI50 in experiment [19] and in experiment [20] was > 100 µM (inactive) in each case.
On to `CCOC(CNCCC(=O)OC)OCC`, for which the GI50 in experiment [1], in experiment [2], in experiment [3], in [4], in experiment [5] and in experiment [6] was > 10 µM (inactive) each time. Besides, the GI50 in experiment [7], in [8], in [9], in experiment [10], in experiment [11] and in experiment [12] was > 10 µM (inactive) throughout. Besides, the GI50 in [13], in experiment [14], in experiment [15], in [16], in [17] and in experiment [18] was > 10 µM (inactive) throughout. Moreover, the GI50 in experiment [19] and in experiment [20] was > 10 µM (inactive) in each case.
Consider `O=C1Nc2ccccc2SC1=C(C(=O)c1ccccc1)C(=O)c1ccccc1`, for which the GI50 in [1] was 32.4 µM (inactive); in experiment [2], 36.6 µM (inactive); in [3], 60.4 µM (inactive); in experiment [4], 4.17 µM (inactive); in [5], 38.1 µM (inactive); in [6], 34.8 µM (inactive). In addition, the GI50 is 22.2 µM (inactive) in [7]; 0.091 µM (active) in experiment [8]; 46.7 µM (inactive) in [9]; 38.1 µM (inactive) in experiment [10]; 28.3 µM (inactive) in experiment [11]; 20.4 µM (inactive) in experiment [12]. In addition, the GI50 in experiment [13] is 40.1 µM (inactive); in experiment [14], 32.9 µM (inactive); in experiment [15], 41.2 µM (inactive); in [16], 51.5 µM (inactive); in experiment [17], 63.4 µM (inactive); in experiment [18], 33.2 µM (inactive). For the same compound, the GI50 in [19] was 20.7 µM (inactive); in experiment [20], 53.3 µM (inactive).
`CCCCON1C[C@@H](O)C(O)[C@@H](O)C1` (stereo not given in full): the GI50 in experiment [1], in experiment [2], in experiment [3], in [4], in experiment [5] and in [6] was > 100 µM (inactive) each time. Besides, the GI50 in [7], in experiment [8], in experiment [9], in [10], in experiment [11] and in [12] was > 100 µM (inactive) each time. In addition, the GI50 in experiment [13], in experiment [14], in experiment [15], in [16], in experiment [17] and in experiment [18] was > 100 µM (inactive) in each case. Moreover, the GI50 in [19] and in experiment [20] was > 100 µM (inactive) in each case.
Regarding `CCOC(=O)CCC(NC(=O)C(N)Cc1ccc(N(CCCl)CCCl)cc1)C(=O)OCC` (stereo not given), the GI50 is 32.1 µM (inactive) in experiment [1]; 2.72 µM (inactive) in experiment [2]; 0.327 µM (active) in experiment [3]; < 0.0246 µM (active) in experiment [4]; 0.249 µM (active) in [5]; 2.36 µM (inactive) in [6]. The GI50 in experiment [7] was 0.662 µM (active); in experiment [8], 0.0665 µM (active); in experiment [9], 1.79 µM (inactive); in [10], 0.253 µM (active); in experiment [11], 0.225 µM (active); in experiment [12] it was 0.285 µM (active). The GI50 is 1.33 µM (inactive) in experiment [13]; 1.5 µM (inactive) in [14]; 4.09 µM (inactive) in experiment [15]; 0.733 µM (active) in [16]; 1.31 µM (inactive) in experiment [17]; 1.85 µM (inactive) in [18]. For the same compound, the GI50 in [19] is 0.34 µM (active); in [20], 0.675 µM (active).
With `O=[N+]([O-])C(=C(\Cl)NCCO)/C(Cl)=C(/Cl)Br`, the GI50 in [1] was 4.66 µM (inactive); in experiment [2], 7.91 µM (inactive); in experiment [3], 0.558 µM (active); in experiment [4], 0.323 µM (active); in experiment [5], 7.74 µM (inactive); in [6] it was 4.85 µM (inactive). For the same compound, the GI50 was 3.33 µM (inactive) in [7]; 0.791 µM (active) in experiment [8]; 10.8 µM (inactive) in [9]; 1.56 µM (inactive) in experiment [10]; 1.57 µM (inactive) in experiment [11]; 1.1 µM (active) in experiment [12]. For the same compound, the GI50 in experiment [13] is 2.34 µM (inactive); in experiment [14], 2.44 µM (inactive); in experiment [15] it was 6.7 µM (inactive); in [16], 3.37 µM (inactive); in experiment [17], 2.16 µM (inactive); in experiment [18], 2.04 µM (inactive). For the same compound, the GI50 is 1.75 µM (inactive) in experiment [19] and 2.79 µM (inactive) in experiment [20].
In the case of `CC[C@H](C)[C@@H]([C@@H](CC(=O)N1CCC[C@H]1[C@H](OC)[C@@H](C)C(=O)NCCc1ccccc1)OC)N(C)C(=O)C(NC(=O)[C@H](C(C)C)N(C)C)C(C)C` (stereo not given in full), the GI50 in [1] is 0.000266 µM (active); in [2], 0.000248 µM (active); in experiment [3] it was 0.00216 µM (active); in experiment [4], 0.000219 µM (active); in [5], 0.000227 µM (active); in experiment [6] it was 0.000964 µM (active). The GI50 in [7] was 0.000266 µM (active); in experiment [8] it was 7.02e-05 µM (active); in experiment [9] it was 0.000235 µM (active); in experiment [10] it was 0.0069 µM (active); in [11], 0.000203 µM (active); in [12] it was 5.83e-05 µM (active). For the same compound, the GI50 in [13] was 0.00736 µM (active); in experiment [14], 4.18e-05 µM (active); in experiment [15], 0.000395 µM (active); in experiment [16], 0.000275 µM (active); in experiment [17], 0.000676 µM (active); in experiment [18] it was 0.000251 µM (active). Besides, the GI50 in [19] was 0.000275 µM (active); in experiment [20] it was 0.00103 µM (active).
In the case of `O=C(CC(c1ccccc1)c1c(O)c2ccccc2oc1=O)c1ccccc1` (stereo not given), the GI50 is > 61.9 µM (inactive) in experiment [1]; 54.6 µM (inactive) in experiment [2]; 21.2 µM (inactive) in [3]; 59.7 µM (inactive) in experiment [4]; > 89.1 µM (inactive) in [5]; 72.1 µM (inactive) in [6]. Further, the GI50 in [7] was 93.3 µM (inactive); in [8], 90.2 µM (inactive); in experiment [9] it was > 100 µM (inactive); in experiment [10], > 44.3 µM (inactive); in [11], > 100 µM (inactive); in experiment [12] it was 47 µM (inactive). Moreover, the GI50 is 54.2 µM (inactive) in experiment [13]; > 100 µM (inactive) in experiment [14]; > 95.7 µM (inactive) in experiment [15]; > 47.5 µM (inactive) in experiment [16]; > 100 µM (inactive) in experiment [17]; > 100 µM (inactive) in [18]. Besides, the GI50 in [19] was 38.4 µM (inactive); in [20] it was 98.4 µM (inactive).
As to `COc1cc(N(C)C)c(OC)cc1/C=C\c1ccnc2ccccc12`, the GI50 was 3.1 µM (inactive) in experiment [1]; 7.11 µM (inactive) in [2]; 6.38 µM (inactive) in [3]; 3.56 µM (inactive) in experiment [4]; 3.46 µM (inactive) in experiment [5]; 2.26 µM (inactive) in experiment [6]. For the same compound, the GI50 in experiment [7] is 3.62 µM (inactive); in experiment [8], 3.7 µM (inactive); in experiment [9], 4.94 µM (inactive); in experiment [10] it was 2.74 µM (inactive); in experiment [11] it was 4.93 µM (inactive); in [12] it was 4.38 µM (inactive). Moreover, the GI50 in experiment [13] was 2.56 µM (inactive); in [14] it was 0.815 µM (active); in [15], > 10 µM (inactive); in experiment [16], 2.57 µM (inactive); in [17] it was 2.12 µM (inactive); in experiment [18] it was 5.04 µM (inactive). Further, the GI50 is 3.39 µM (inactive) in experiment [19] and > 10 µM (inactive) in [20].
